One experiment concerns the target human full length PDE3B (Homo sapiens (Human), UniProt Q13370). In words: Assay 5 PDE3B enzyme inhibition (3H-cAMP SPA). As to conditions: Sf9 cell extract. The format is biochemical. An outline of the steps: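 Hydrolysis of tritiated cAMP by Sf9-expressed full-length human PDE3B proceeded 60 min at room temperature in Tris buffer pH 7.5 containing Mg2+, EDTA and BSA, with enzyme dilution keeping substrate consumption below 70%. IC50 derived from percent activity versus log compound concentration.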

The test system of a further experiment is HeLa cells. As to the kind of experiment: Assay 1 cell proliferation measurement (CTG, 72 h), HeLa. The settings on record: Homo sapiens, HeLa; Assay 1, 72 h, Cell Titer Glo; read-out: HeLa IC50 [nM] (Cervical cancer). The format is cell-based, human. In short, it runs like this:
(§1)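 Cells were plated, grown overnight at 37 °C, then treated 72 h with a 10-step 2.5-fold dilution series from 100 nM maximum final (0.3% DMSO vehicle). Viability was read by CellTiter-Glo luminescence. IC50 from a 4-parameter fit, normalised to a 0 h plate (maximum inhibition) and DMSO control (minimum inhibition).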
For orientation: In ATP-based viability assays light output follows the ATP content of the culture.

Another experiment deals with SK-MEL-3 cells. As to the kind of experiment: Assay 1 cell proliferation measurement (CTG, 72 h), SK-MEL-3. The format is cell-based, human. The settings on record: Homo sapiens, SK-MEL3; Assay 1, 72 h, Cell Titer Glo; read-out: SK-MEL-3 IC50 [nM] (melanoma). In short, it runs like this: as §1
Another experiment concerns the target human full length PDE3A (Homo sapiens (Human), UniProt Q14432). In words: Assay 4 PDE3A enzyme inhibition (3H-cAMP SPA). The format is biochemical. The settings on record: Sf9 cell extract. In short, it runs like this:
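In this SPA format, the 60-min room-temperature reaction used 0.025 μCi [8-3H]cAMP and diluted full-length PDE3A from Sf9 cells. Percentage activity was plotted against log compound concentration to derive IC50.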

human full length PDE3B, sequence (Q13370 whole entry): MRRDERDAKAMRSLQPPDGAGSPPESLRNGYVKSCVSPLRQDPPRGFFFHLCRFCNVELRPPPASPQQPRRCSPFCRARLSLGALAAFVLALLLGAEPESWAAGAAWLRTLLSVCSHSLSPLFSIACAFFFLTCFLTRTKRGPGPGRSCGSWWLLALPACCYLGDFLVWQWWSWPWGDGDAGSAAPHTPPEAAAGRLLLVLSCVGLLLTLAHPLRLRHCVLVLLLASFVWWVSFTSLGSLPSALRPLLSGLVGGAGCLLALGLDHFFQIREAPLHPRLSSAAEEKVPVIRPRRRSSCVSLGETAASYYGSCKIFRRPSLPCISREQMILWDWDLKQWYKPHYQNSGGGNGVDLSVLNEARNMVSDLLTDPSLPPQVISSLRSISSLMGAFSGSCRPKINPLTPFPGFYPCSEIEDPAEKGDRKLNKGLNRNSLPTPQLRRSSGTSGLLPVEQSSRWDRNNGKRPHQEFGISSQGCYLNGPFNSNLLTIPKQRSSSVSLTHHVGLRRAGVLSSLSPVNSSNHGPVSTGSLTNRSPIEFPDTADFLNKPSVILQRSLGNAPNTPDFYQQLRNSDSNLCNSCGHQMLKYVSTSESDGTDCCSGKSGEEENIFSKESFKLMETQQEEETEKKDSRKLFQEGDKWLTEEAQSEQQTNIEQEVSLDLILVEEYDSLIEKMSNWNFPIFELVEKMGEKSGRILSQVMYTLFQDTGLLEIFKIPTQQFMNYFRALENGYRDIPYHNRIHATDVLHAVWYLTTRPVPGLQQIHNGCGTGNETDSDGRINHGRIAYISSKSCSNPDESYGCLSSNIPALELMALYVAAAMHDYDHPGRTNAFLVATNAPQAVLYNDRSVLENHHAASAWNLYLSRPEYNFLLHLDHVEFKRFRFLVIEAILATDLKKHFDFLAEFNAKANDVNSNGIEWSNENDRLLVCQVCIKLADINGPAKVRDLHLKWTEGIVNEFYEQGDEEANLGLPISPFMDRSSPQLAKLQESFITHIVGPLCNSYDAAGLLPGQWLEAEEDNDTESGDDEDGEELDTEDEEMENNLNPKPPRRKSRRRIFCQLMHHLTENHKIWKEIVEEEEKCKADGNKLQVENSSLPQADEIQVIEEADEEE
human full length PDE3A, sequence (Q14432 whole entry): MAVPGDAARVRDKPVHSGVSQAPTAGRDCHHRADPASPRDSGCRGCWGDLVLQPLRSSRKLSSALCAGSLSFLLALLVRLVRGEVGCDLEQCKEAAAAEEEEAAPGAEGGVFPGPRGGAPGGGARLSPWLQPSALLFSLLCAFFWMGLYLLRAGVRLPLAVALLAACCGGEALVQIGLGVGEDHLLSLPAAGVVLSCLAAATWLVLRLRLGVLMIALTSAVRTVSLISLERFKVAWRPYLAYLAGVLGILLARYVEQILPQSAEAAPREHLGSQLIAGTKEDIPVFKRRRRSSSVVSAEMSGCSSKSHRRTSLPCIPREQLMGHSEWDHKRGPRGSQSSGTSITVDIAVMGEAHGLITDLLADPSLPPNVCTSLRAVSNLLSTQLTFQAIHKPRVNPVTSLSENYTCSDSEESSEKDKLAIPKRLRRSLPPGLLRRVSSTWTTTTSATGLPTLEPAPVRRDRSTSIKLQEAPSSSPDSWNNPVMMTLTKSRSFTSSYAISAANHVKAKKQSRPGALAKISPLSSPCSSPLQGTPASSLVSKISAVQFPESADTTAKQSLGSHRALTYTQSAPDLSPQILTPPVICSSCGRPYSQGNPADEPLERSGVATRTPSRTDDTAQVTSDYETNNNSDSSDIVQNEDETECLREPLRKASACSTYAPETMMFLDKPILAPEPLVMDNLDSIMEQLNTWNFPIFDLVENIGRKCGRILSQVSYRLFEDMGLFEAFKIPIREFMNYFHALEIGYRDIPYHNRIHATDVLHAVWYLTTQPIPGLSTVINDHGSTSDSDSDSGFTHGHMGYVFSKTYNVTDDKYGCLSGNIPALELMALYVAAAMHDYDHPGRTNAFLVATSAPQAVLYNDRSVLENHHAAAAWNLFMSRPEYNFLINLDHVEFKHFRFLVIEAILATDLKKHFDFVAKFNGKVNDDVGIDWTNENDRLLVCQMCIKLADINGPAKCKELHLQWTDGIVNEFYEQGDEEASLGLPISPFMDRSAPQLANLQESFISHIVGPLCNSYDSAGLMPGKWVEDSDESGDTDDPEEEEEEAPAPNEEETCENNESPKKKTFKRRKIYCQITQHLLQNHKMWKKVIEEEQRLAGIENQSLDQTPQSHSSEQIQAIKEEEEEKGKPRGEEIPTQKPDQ

Regarding `COc1ccc(-c2ccc(C3=NNC(=O)OC3)cc2F)cn1` [Example 85, 5-[3-Fluoro-4-(6-methoxypyridin-3-yl)phenyl]-3,6-dihydro-2H-1,3,4-oxadiazin-2-one], the IC50 came out at 78 nM at human full length PDE3B, 7 nM in the experiment on HeLa cells, 13 nM with SK-MEL-3 cells and 33 nM on human full length PDE3A.
On to `Cc1cc(-c2ccc(C3=NNC(=O)OC3)cc2F)ccc1F` [Example 86, 5-(2,4′-Difluoro-3′-methylbiphenyl-4-yl)-3,6-dihydro-2H-1,3,4-oxadiazin-2-one], for which the IC50 came to 210 nM against human full length PDE3B, 6 nM with HeLa cells, 25 nM in the experiment with SK-MEL-3 cells and 84 nM against human full length PDE3A.
Regarding `Cc1cccc(-c2ccc(C3=NNC(=O)OC3)cc2F)c1` [Example 87, 5-(2-Fluoro-3′-methylbiphenyl-4-yl)-3,6-dihydro-2H-1,3,4-oxadiazin-2-one], the IC50 on human full length PDE3B is 230 nM; in the experiment with HeLa cells, 10 nM; in the experiment with SK-MEL-3 cells, 32 nM; on human full length PDE3A, 81 nM.
As for `Cc1ccc(-c2ccc(C3=NNC(=O)OC3)cc2F)cc1` [Example 88, 5-(2-Fluoro-4′-methylbiphenyl-4-yl)-3,6-dihydro-2H-1,3,4-oxadiazin-2-one], the IC50 on human full length PDE3B worked out at 250 nM; with HeLa cells, 2 nM; in the experiment on SK-MEL-3 cells it was 6 nM; against human full length PDE3A it was 110 nM.
For `O=C1NN=C(c2ccc(-c3ccccc3)c(F)c2)CO1` [Example 89, 5-(2-Fluorobiphenyl-4-yl)-3,6-dihydro-2H-1,3,4-oxadiazin-2-one], the IC50 on human full length PDE3B was determined as 140 nM; with HeLa cells, 2 nM; in the experiment on SK-MEL-3 cells, 5 nM; against human full length PDE3A, 110 nM.
For the compound `Nc1cc(-c2ccc(C3=NNC(=O)OC3)cc2F)ccn1` [Example 90, 5-[4-(2-Aminopyridin-4-yl)-3-fluorophenyl]-3,6-dihydro-2H-1,3,4-oxadiazin-2-one], the IC50 turned out to be 100 nM against human full length PDE3B, 16 nM in the experiment with HeLa cells, 30 nM with SK-MEL-3 cells and 43 nM against human full length PDE3A.
For the compound `Nc1cccc(-c2ccc(C3=NNC(=O)OC3)cc2F)c1` [Example 91, 5-[4-(3-Aminophenyl)-3-fluoro-phenyl]-3,6-dihydro-1,3,4-oxadiazin-2-one], the half-maximal inhibitory concentration (IC50) against human full length PDE3B is 85 nM; in the experiment with HeLa cells it was 14 nM; in the experiment with SK-MEL-3 cells, 17 nM; on human full length PDE3A it was 68 nM.
Take `O=C1NN=C(c2ccc(-c3ccncc3)c(F)c2)CO1` [Example 93, 5-[3-Fluoro-4-(pyridin-4-yl)phenyl]-3,6-dihydro-2H-1,3,4-oxadiazin-2-one]: the IC50 against human full length PDE3B was 100 nM; in the experiment on HeLa cells it was 7 nM; in the experiment on SK-MEL-3 cells, 13 nM; against human full length PDE3A, 50 nM.
Turning to `Cc1ncc(-c2ccc(C3=NNC(=O)OC3)cc2F)cn1` [Example 94, 5-[3-Fluoro-4-(2-methylpyrimidin-5-yl)phenyl]-3,6-dihydro-2H-1,3,4-oxadiazin-2-one], the IC50 at human full length PDE3B amounted to 280 nM; in the experiment with HeLa cells, 16 nM; in the experiment with SK-MEL-3 cells it was 36 nM; against human full length PDE3A it was 91 nM.
As to `COc1cc(-c2ccc(C3=NNC(=O)OC3)cc2F)ccn1` [Example 95, 5-[3-Fluoro-4-(2-methoxypyridin-4-yl)phenyl]-3,6-dihydro-2H-1,3,4-oxadiazin-2-one], the IC50 at human full length PDE3B is 79 nM; in the experiment with HeLa cells, 33 nM; in the experiment on SK-MEL-3 cells, > 100 nM; against human full length PDE3A, 37 nM.
Consider `Cc1ncccc1-c1ccc(C2=NNC(=O)OC2)cc1F` [Example 96, 5-[3-Fluoro-4-(2-methylpyridin-3-yl)phenyl]-3,6-dihydro-2H-1,3,4-oxadiazin-2-one], for which the IC50 on human full length PDE3B was found to be 110 nM; in the experiment with HeLa cells, 18 nM; in the experiment with SK-MEL-3 cells it was 40 nM; against human full length PDE3A, 50 nM.
With `Cc1ccc(-c2ccc(C3=NNC(=O)OC3)cc2F)cn1` [Example 97, 5-[3-Fluoro-4-(6-methylpyridin-3-yl)phenyl]-3,6-dihydro-2H-1,3,4-oxadiazin-2-one], the IC50 against human full length PDE3B is 130 nM; with HeLa cells it was 5 nM; with SK-MEL-3 cells, 8 nM; at human full length PDE3A, 65 nM.
Taken in the same sequence, the figures for `O=C1NN=C(c2ccc(-c3cc(F)c(F)cc3F)c(F)c2)CO1` [Example 98, 5-(2,2′,4′,5′-Tetrafluoro[1,1′-biphenyl]-4-yl)-3,6-dihydro-2H-1,3,4-oxadiazin-2-one] were 120 nM, 5 nM, 8 nM and 100 nM.
Turning to `O=C1NN=C(c2ccc(-c3ccc(F)c(F)c3F)c(F)c2)CO1` [Example 99, 5-(2,2′,3′,4′-Tetrafluoro[1,1′-biphenyl]-4-yl)-3,6-dihydro-2H-1,3,4-oxadiazin-2-one], the IC50 at human full length PDE3B was found to be 100 nM; in the experiment with HeLa cells it was 5 nM; in the experiment with SK-MEL-3 cells it was 11 nM; against human full length PDE3A, 88 nM.
Regarding `O=C1NN=C(c2ccc(-c3cc(F)ccc3F)c(F)c2)CO1` [Example 100, 5-(2,2′,5′-Trifluoro[1,1′-biphenyl]-4-yl)-3,6-dihydro-2H-1,3,4-oxadiazin-2-one], the IC50 at human full length PDE3B came out at 66 nM; with HeLa cells it was 5 nM; with SK-MEL-3 cells, 9 nM; at human full length PDE3A it was 48 nM.
`N#Cc1ccc(-c2ccc(C3=NNC(=O)OC3)cc2F)cc1` [Example 101, 2′-Fluoro-4′-(2-oxo-3,6-dihydro-2H-1,3,4-oxadiazin-5-yl)[1,1′-biphenyl]-4-carbonitrile]: the IC50 against human full length PDE3B was 39 nM; in the experiment with HeLa cells, 2 nM; in the experiment on SK-MEL-3 cells it was 4 nM; on human full length PDE3A, 28 nM.
With `Nc1ccccc1-c1ccc(C2=NNC(=O)OC2)cc1F` [Example 102, 5-(2′-Amino-2-fluoro[1,1′-biphenyl]-4-yl)-3,6-dihydro-2H-1,3,4-oxadiazin-2-one], the IC50 came to 280 nM against human full length PDE3B, 23 nM in the experiment with HeLa cells, 40 nM in the experiment with SK-MEL-3 cells and 170 nM at human full length PDE3A.
Taken in the same sequence, the figures for `Cc1ccc(-c2ccc(C3=NNC(=O)OC3)cc2F)cc1N` [Example 103, 5-(3′-Amino-2-fluoro-4′-methyl[1,1′-biphenyl]-4-yl)-3,6-dihydro-2H-1,3,4-oxadiazin-2-one] were 140 nM, 3 nM, 6 nM and 66 nM.
Regarding `O=C1NN=C(c2ccc(-c3cccc(O)c3)c(F)c2)CO1` [Example 104, 5-(2-Fluoro-3′-hydroxy[1,1′-biphenyl]-4-yl)-3,6-dihydro-2H-1,3,4-oxadiazin-2-one], the IC50 against human full length PDE3B is 58 nM; in the experiment on HeLa cells it was 37 nM; with SK-MEL-3 cells it was 17 nM; against human full length PDE3A, 35 nM.
Take `O=C1NN=C(c2ccc(-c3ccc(O)cc3)c(F)c2)CO1` [Example 105, 5-(2-Fluoro-4′-hydroxy[1,1′-biphenyl]-4-yl)-3,6-dihydro-2H-1,3,4-oxadiazin-2-one]: the 50% inhibitory concentration (IC50) on human full length PDE3B stood at 100 nM; in the experiment on HeLa cells, 8 nM; with SK-MEL-3 cells, 15 nM; at human full length PDE3A, 48 nM.
In the case of `O=C1NN=C(c2ccc(-c3ccccc3O)c(F)c2)CO1` [Example 106, 5-(2-Fluoro-2′-hydroxy[1,1′-biphenyl]-4-yl)-3,6-dihydro-2H-1,3,4-oxadiazin-2-one], the IC50 on human full length PDE3B came out at 240 nM; with HeLa cells, 9 nM; in the experiment with SK-MEL-3 cells, 16 nM; on human full length PDE3A, 120 nM.
The corresponding values for `O=C1NN=C(c2ccc(-c3ccc(F)c(F)c3)c(F)c2)CO1` [Example 107, 5-(2,3′,4′-Trifluoro[1,1′-biphenyl]-4-yl)-3,6-dihydro-2H-1,3,4-oxadiazin-2-one] are 160 nM, 6 nM, 12 nM and 150 nM.
For `O=C1NN=C(c2ccc(-c3cccnc3)c(F)c2)CO1` [Example 108, 5-[3-Fluoro-4-(pyridin-3-yl)phenyl]-3,6-dihydro-2H-1,3,4-oxadiazin-2-one], the IC50 on human full length PDE3B was 22 nM; with HeLa cells, 6 nM; in the experiment on SK-MEL-3 cells, 13 nM; against human full length PDE3A, 26 nM.
Regarding `O=C1NN=C(c2ccc(-c3cccc(F)c3F)c(F)c2)CO1` [Example 109, 5-(2,2′,3′-Trifluoro[1,1′-biphenyl]-4-yl)-3,6-dihydro-2H-1,3,4-oxadiazin-2-one], the IC50 was 32 nM on human full length PDE3B, 4 nM in the experiment on HeLa cells, 9 nM in the experiment with SK-MEL-3 cells and 46 nM against human full length PDE3A.
As to `O=C1NN=C(c2ccc(-c3cc(F)cc(F)c3)c(F)c2)CO1` [Example 110, 5-(2,3′,5′-Trifluoro[1,1′-biphenyl]-4-yl)-3,6-dihydro-2H-1,3,4-oxadiazin-2-one], the IC50 on human full length PDE3B was 140 nM; with HeLa cells, 8 nM; in the experiment with SK-MEL-3 cells, 14 nM; against human full length PDE3A, 100 nM.
On to `Cc1ccc(-c2ccc(C3=NNC(=O)OC3)cc2F)c(C)c1` [Example 112, 5-(2-Fluoro-2′,4′-dimethyl[1,1′-biphenyl]-4-yl)-3,6-dihydro-2H-1,3,4-oxadiazin-2-one], for which the IC50 against human full length PDE3B stood at 230 nM; in the experiment on HeLa cells it was 6 nM; in the experiment with SK-MEL-3 cells it was 10 nM; at human full length PDE3A, 170 nM.

For orientation: IC50 means the point on the concentration scale where inhibition reaches its midpoint.

The values are drawn from US11427553B2, “Dihydrooxadiazinones” (Bayer Aktiengesellschaft, priority 2017, dated 2022).
